Source: patent publication US12410160B2 (Gilead Sciences, Inc., priority 2021, dated 2025)

Legend:
human KHK-C = human KHK-C (Homo sapiens (Human), UniProt P50053); experiment: KHK Biochemical Assay (IC50), ADP-Glo, KHK-C; conditions: average of at least two separate assays
Procedure: (§1) The His-tagged fusion protein was expressed using BL21 (DE3) with IPTG induction and purified using Ni-NTA column followed by dialysis into final buffer containing 25 mM Tris-HCl pH 8.0, 250 mM NaCl.
(§2) KHK Biochemical Assay (IC50)
(§3) Compounds were tested for KHK enzyme inhibition in a high-throughput 384-well assay format using the ADP-Glo assay (Promega) in buffer consisting of 50 mM Hepes (pH 7.4), 140 mM KCl, 5 mM MgCl2 and 0.01% Triton-X. 0.2 nM. […] Compounds were serially diluted (1:3) in DMSO.
(§4) The compounds were pre-incubated with 5 μL of 2× final enzyme concentration for 30 minutes before adding 5 μL of 2× final concentration of ATP and fructose. The plates were incubated at room temperature for 4 hours before adding ADP-Glo reagent to quench the enzyme reaction, followed by incubation at room temperature for 1 hour. The ADP-Glo detection reagent was then added to the plates and luminescence was measured on the Envision plate reader after 1 hour.

human KHK-A = human KHK-A (Homo sapiens (Human), UniProt P50053); experiment: KHK Biochemical Assay (IC50), ADP-Glo, KHK-A; conditions: average of at least two separate assays
human KHK-A, sequence (P50053 other isoform, or with tags, fused parts or gaps): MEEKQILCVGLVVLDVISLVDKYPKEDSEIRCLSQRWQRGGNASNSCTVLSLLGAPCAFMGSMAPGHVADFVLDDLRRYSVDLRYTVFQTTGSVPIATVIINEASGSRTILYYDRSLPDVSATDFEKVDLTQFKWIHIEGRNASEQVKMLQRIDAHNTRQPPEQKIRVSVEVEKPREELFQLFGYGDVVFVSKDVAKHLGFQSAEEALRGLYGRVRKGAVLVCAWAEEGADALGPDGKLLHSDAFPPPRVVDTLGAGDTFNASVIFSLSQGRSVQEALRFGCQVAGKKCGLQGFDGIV
Procedure: as §1, §2, §3, §4

human KHK-C, sequence (P50053 whole entry, the tested form may be a part): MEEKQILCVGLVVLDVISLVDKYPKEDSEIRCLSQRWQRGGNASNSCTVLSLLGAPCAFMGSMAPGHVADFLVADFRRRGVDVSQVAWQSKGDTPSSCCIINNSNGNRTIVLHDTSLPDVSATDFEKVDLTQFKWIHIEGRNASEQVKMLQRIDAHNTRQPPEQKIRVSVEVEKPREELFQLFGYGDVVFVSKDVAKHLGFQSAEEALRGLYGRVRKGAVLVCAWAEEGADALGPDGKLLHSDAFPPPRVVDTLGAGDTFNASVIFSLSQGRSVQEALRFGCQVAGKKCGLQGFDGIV

Compound	IC50 (human KHK-C; ADP-Glo)	IC50 (human KHK-A; ADP-Glo)	IC50 (human KHK-C)	IC50 (human KHK-A)
2-[(2S)-2-methylazetidin-1-yl]-4-(3-methylimidazol-4-yl)-6,7-dihydro-5H-cyclopenta[d]pyrimidine [Example 341]	111 nM	133 nM		
3-(24(2S,3R)-3-fluoro-2-methylazetidin-1-yl)-6,8-dihydro-5H-pyrano[3,4-d]pyrimidin-4-yl)benzenesulfonamide [Example 287]	1270 nM	696 nM		
C[C@H]1CCN1c1nc(-c2ccccc2)c2c(n1)C1CC1C2 (mixture of isomers) [Example 332, 9-[(2S)-2-methylazetidin-1-yl]-7-phenyl-8,10-diazatricyclo[4.4.0.02,4]deca-1(10),6,8-triene]	2170 nM	1910 nM		
C[C@H]1CCN1c1nc2c(c(-c3cccc(C(=O)N[C@H]4CC[C@@H]4O)c3)n1)CCC2 (racemic) [Example 59, N-((18*,28*)-2-hydroxycyclobutyl)-3-(2-((8)-2-methylazetidin-1-yl)-6,7-dihydro-5H-cyclopenta[d]pyrimidin-4-yl)benzamide]	171 nM	42.9 nM		
C[C@H]1CCN1c1nc2c(c(-c3cccc(C(=O)N[C@H]4CC[C@H]4O)c3)n1)CCC2 (racemic) [Example 60, N-((18*,2R*)-2-hydroxycyclobutyl)-3-(2-((8)-2-methylazetidin-1-yl)-6,7-dihydro-5H-cyclopenta[d]pyrimidin-4-yl)benzamide]	119 nM	61.6 nM		
NS(=O)(=O)c1cccc(-c2nc(N3CC4CCCC43)nc3c2CCC3)c1 (racemic) [Example 79, (rac)-3-(2-(6-azabicyclo[3.2.0]heptan-6-yl)-6,7-dihydro-5H-cyclopenta[d]pyrimidin-4-yl)benzenesulfonamide]	4990 nM	6960 nM		
NS(=O)(=O)c1cccc(-c2nc(N3CC[C@@H]4[C@H](O)C[C@@H]43)nc3c2CCC3)c1 (racemic) [Example 80, (rac)-3-(2-((1S*,5S*,6R*)-6-hydroxy-2-azabicyclo[3.2.0]heptan-2-yl)-6,7-dihydro-5H-cyclopenta[d]pyrimidin-4-yl)benzenesulfonamide]	957 nM	865 nM		
C[C@H]1[C@H](O)CN1c1nc2c(c(-c3cccc([C@H]4C[C@@H]4C(=O)O)c3)n1)CCC2 (single isomer, unassigned) [Example 113]	13.2 nM	18.2 nM		
C[C@H]1[C@H](O)CN1c1nc2c(c(-c3cccc([C@@H]4C[C@H]4C(=O)O)c3)n1)CCC2 (single isomer, unassigned) [Example 114]	46.2 nM	51 nM		
C[C@H]1CCN1c1nc(-c2ccccc2)c2c(n1)[C@H]1C[C@H]1C2 (single isomer, unassigned) [Example 334]	9700 nM	9270 nM		
C[C@H]1[C@H](O)CN1c1nc(-c2ccc3c(c2)OC[C@]32COC(=O)N2)c2c(n1)C(F)(F)CC2 (single isomer, unassigned) [Example 482]			12 nM	26.4 nM
C[C@H]1[C@H](O)CN1c1nc(-c2ccc3c(c2)OC[C@]32COCC(=O)N2)c2c(n1)C(F)(F)CC2 (single isomer, unassigned) [Example 498]			1.2 nM	18.9 nM
C[C@H]1[C@H](O)CN1c1nc(-c2ccc(OC3CC3)c([S@](C)(=N)=O)c2)c2c(n1)C(F)(F)CC2 (single isomer, unassigned) [Example 543]			10.6 nM	6.2 nM
CC1OC[C@]2(COc3cc(-c4nc(N5C[C@@H](O)[C@@H]5C)nc5c4CCC5(F)F)ccc32)NC1=O (single isomer, unassigned) [Example 560]			16.2 nM	75.2 nM
C[C@H]1[C@H](O)CN1c1nc(-c2ccc3c(c2)OC[C@@]32NC(=O)OC2(C)C)c2c(n1)C(F)(F)CC2 (single isomer, unassigned) [Example 567]			44.3 nM	65 nM
C[C@H]1[C@H](O)CN1c1nc(-c2ccc3c(c2)C(F)(F)C[C@@H]3NS(C)(=O)=O)c2c(n1)C(F)(F)CC2 (single isomer, unassigned) [Example 634]			0.9 nM	10.8 nM
C[C@H]1[C@H](F)CN1c1nc(-c2ccc3c(c2)S(=O)(=O)C[C@@H]3NS(C)(=O)=O)c2c(n1)C(F)(F)CC2 (single isomer, unassigned) [Example 679]			0.1 nM	2.3 nM
NC1(c2ccc(-c3nc(N4CC[C@H]4C(F)F)nc4c3CCC4(F)F)cc2)COC1 (single isomer, unassigned) [Example 688]			59.6 nM	96.5 nM
NC1(c2ccc(-c3nc(N4CC[C@@H]4C(F)F)nc4c3CCC4(F)F)cc2)CS(=O)(=O)C1 (single isomer, unassigned) [Example 800]	1.3 nM	7.8 nM		

Compound	IC50 (human KHK-C; ADP-Glo)	IC50 (human KHK-A; ADP-Glo)	IC50 (human KHK-C)	IC50 (human KHK-A)
NC1(c2ccc(-c3nc(N4CC[C@H]4C(F)F)nc4c3CCC4(F)F)cc2)CS(=O)(=O)C1 (single isomer, unassigned) [Example 801]	52.2 nM	> 100 nM		
C[C@H]1[C@H](O)CN1c1nc(-c2cnc3c(c2)OC[C@H]3NS(C)(=O)=O)c2c(n1)C(F)(F)CC2 (single isomer, unassigned) [Example 822]	24.2 nM	> 100 nM		
C[C@H]1[C@H](O)CN1c1nc(-c2ccc3c(c2)OC[C@]32NC(=O)N(C)C2=O)c2c(n1)C(F)(F)CC2 (single isomer, unassigned) [Example 827]	11.8 nM	> 100 nM		
COC(=O)N[C@@H]1COc2cc(-c3nc(N4C[C@@H](O)[C@@H]4C)nc4c3CCC4(F)F)cc(OC)c21 (single isomer, unassigned) [Example 833]	4 nM	99.8 nM		
COC(=O)N[C@H]1COc2cc(-c3nc(N4C[C@@H](O)[C@@H]4C)nc4c3CCC4(F)F)cc(OC)c21 (single isomer, unassigned) [Example 834]	17.8 nM	56.8 nM		
COC(=O)CCc1cccc(-c2nc(N3CC[C@@H]3C)nc3c2CCC3)c1 [Example 1, methyl (S)-3-(3-(2-(2-methylazetidin-1-yl)-6,7-dihydro-5H cyclopenta[d]pyrimidin-4-yl)phenyl)propanoate]	689 nM	952 nM		
COC(=O)CCc1ccccc1-c1nc(N2CC[C@@H]2C)nc2c1CCC2 [Example 2, methyl (S)-3-(2-(2-(2-methylazetidin-1-yl)-6,7-dihydro-5H-cyclopenta[d]pyrimidin-4-yl)phenyl)propanoate]	30800 nM	31000 nM		
COC(=O)Cc1cccc(-c2nc(N3CC[C@@H]3C)nc3c2CCC3)c1 [Example 3, methyl (S)-2-(3-(2-(2-methylazetidin-1-yl)-6,7-dihydro-5H-cyclopenta[d]pyrimidin-4-yl)phenyl)acetate]	122 nM	121 nM		
C[C@H]1CCN1c1nc2c(c(-c3ccccc3CCC(=O)O)n1)CCC2 [Example 5, (S)-3-(2-(2-(2-methylazetidin-1-yl)-6,7-dihydro-5H-cyclopenta[d]pyrimidin-4-yl)phenyl)propanoic acid]	7900 nM	5920 nM		
C[C@H]1CCN1c1nc2c(c(-c3cccc(CC(=O)O)c3)n1)CCC2 [Example 6, (S)-2-(3-(2-(2-methylazetidin-1-yl)-6,7-dihydro-5H-cyclopenta[d]pyrimidin-4-yl)phenyl)acetic acid]	243 nM	285 nM		
C[C@H]1CCN1c1nc2c(c(-c3cccc(C#N)c3)n1)CCC2 [Example 7, (S)-3-(2-(2-methylazetidin-1-yl)-6,7-dihydro-5H-cyclopenta[d]pyrimidin-4-yl)benzonitrile]	373 nM	439 nM		
C[C@H]1CCN1c1nc2c(c(-c3ccccc3)n1)CCOC2 [Example 10, (S)-2-(2-methylazetidin-1-yl)-4-phenyl-5,8-dihydro-6H-pyrano[3,4-d]pyrimidine]	1140 nM	1150 nM		
C[C@H]1CCN1c1nc(-c2ccccc2)c2c(cnn2C)n1 [Example 11, (S)-1-methyl-5-(2-methylazetidin-1-yl)-7-phenyl-1H-pyrazolo[4,3-d]pyrimidine]	408 nM	453 nM		
C[C@H]1CCN1c1nc(-c2ccccc2)c2occc2n1 [Example 12, (S)-2-(2-methylazetidin-1-yl)-4-phenylfuro[3,2-d]pyrimidine]	2600 nM	2620 nM		
C[C@H]1CCN1c1nc2c(c(-c3ccn(CCC(=O)O)n3)n1)CCC2 [Example 24, (S)-3-(3-(2-(2-methylazetidin-1-yl)-6,7-dihydro-5H-cyclopenta[d]pyrimidin-4-yl)-1H-pyrazol-1-yl)propanoic acid]	420 nM	615 nM		
C[C@H]1CCN1c1nc2c(c(-c3cnn(CCC(=O)O)c3)n1)CCC2 [Example 25, (S)-3-(4-(2-(2-methylazetidin-1-yl)-6,7-dihydro-5H-cyclopenta[d]pyrimidin-4-yl)-1H-pyrazol-1-yl)propanoic acid]	104 nM	142 nM		
C[C@H]1CCN1c1nc(-c2ccccc2)c2ncsc2n1 [Example 26, (S)-5-(2-methylazetidin-1-yl)-7-phenylthiazolo[5,4-d]pyrimidine]	1540 nM	1860 nM		
C[C@H]1CCN1c1nc2c(c(-c3ccccc3)n1)CC(C1CC1)C2 (stereo partly drawn) [Example 30, 6-cyclopropyl-2-((S)-2-methylazetidin-1-yl)-4-phenyl-6,7-dihydro-5H-cyclopenta[d]pyrimidine]	> 50000 nM	> 50000 nM		
